# Results taken from patent US6964949B2, “Pharmaceutical compositions for promoting the growth of gram-positive bacilli and increasing the acidity in the vagina and the use thereof” (Shanghai Jiao Da Onlly Co., Ltd., priority 2000, dated 2005).
# Tests used:
# Format in all cases: cell-based
# Gram-negative bacilli [1] = assay: Experiment Example 3: 2.5% maltose or sucrose, specimen culture, Gram smear; conditions: 2.5% saccharide, 1.0% yeast extract, 1.6% xanthan gum, pH 6.2, candle jar, 37° C.
# Protocol: (§1) • (1) The preparation of the compositions: Maltose and sucrose were used respectively to prepare the following composition according to the methods mentioned above: • A. 2.5% maltose, 1.0% yeast extract, 1.6% xanthan gum, pH adjusted to 6.2; • B. 2.5% sucrose, 1.0 yeast extract, 1.6% xanthan gum, pH adjusted to 6.2; • (2) The preparation of the test tubes: Compositions as prepared above were filled into the test tubes, with each tube containing 5 ml, sterilized, and kept until use for experiment. • (3) Specimen suspension: Vaginal secretion was taken from one of the patients suffering from typical bacterial vaginosis with a cotton swab, then the swab was washed in 2 ml sterilized Trypcase-soy Broth immediately, and thus the specimen suspension was ready. […] Then the tubes were placed in a candle jar and cultivated at 37° C. After 24 hours and 48 hours' culture, culture samples were taken respectively from each of the tubes, then the Gram smears of the samples were observed and the pH values of culture samples were tested.
# Gram-negative cocci [2] = assay: as above; conditions: 2.5% saccharide, 1.0% yeast extract, 1.6% xanthan gum, pH 6.2, candle jar, 37° C.
# Protocol: as §1
# Gram-positive bacilli [3] = assay: as above; conditions: 2.5% saccharide, 1.0% yeast extract, 1.6% xanthan gum, pH 6.2, candle jar, 37° C.
# Protocol: as §1
# Gram-positive cocci = assay: as above; conditions: 2.5% saccharide, 1.0% yeast extract, 1.6% xanthan gum, pH 6.2, candle jar, 37° C.
# Protocol: as §1
# Gram-negative bacilli [4] = assay: Experiment Example 5: influence of composition pH (10.0% maltose), specimen culture, Gram smear; conditions: 1.0% yeast extract, 1.6% xanthan gum
# From the text: (§2) • (1)The preparation of the compositions: Maltose was used to prepare the following compositions according to the method mentioned above: • A. 10.0% maltose, 1.0% yeast extract, 1.6% xanthan gum, pH adjusted to 4.4; • B. 10.0% maltose, 1.0% yeast extract, 1.6% xanthan gum, pH adjusted to 4.8; • C. 10.0% maltose, 1.0% yeast extract, 1.6% xanthan gum, pH adjusted to 5.1; • D. 10.0% maltose, 1.0% yeast extract, 1.6% xanthan gum, pH adjusted to 5.4; • E. 10.0% maltose, 1.0% yeast extract, 1.6% xanthan gum, pH adjusted to 5.8; • F. 10.0% maltose, 1.0% yeast extract, 1.6% xanthan gum, pH adjusted to 6.4; • G. 10.0% maltose, 1.0% yeast extract, 1.6% xanthan gum, pH adjusted to 6.8; • H. 10.0% maltose, 1.0% yeast extract, 1.6% xanthan gum, pH adjusted to 7.2; • (2)The preparation of the test tubes: Compositions prepared above were filled into the test tubes, with each tube containing 5 ml, sterilized, and kept until use for experiments. • (3)Specimen suspension: Vaginal secretion was taken from one of the patients suffering from typical bacterial vaginosis with a cotton swab, then the swab was washed in 2 ml sterilized Trypcase-soy Broth immediately, and thus the specimen suspension was ready. […] Then the tubes were placed in a candle jar and cultivated at 37° C. After 24 hours and 48 hours' culture, culture samples were taken respectively from each of the tubes, then the Gram smears of the samples were observed and the pH values of culture samples were tested.
# Gram-negative cocci [5] = assay: as above; conditions: 1.0% yeast extract, 1.6% xanthan gum
# From the text: as §2
# Gram-positive bacilli [6] = assay: as above; conditions: 1.0% yeast extract, 1.6% xanthan gum
# From the text: as §2
# [7] = pH of the composition 4.4, 24 hours
# [8] = pH of the composition 4.4, 48 hours
# [9] = pH of the composition 4.8, 24 hours
# [10] = pH of the composition 4.8, 48 hours
# [11] = pH of the composition 5.1, 24 hours
# [12] = pH of the composition 5.1, 48 hours
# [13] = pH of the composition 5.4, 24 hours
# [14] = pH of the composition 5.4, 48 hours
# [15] = pH of the composition 5.8, 24 hours
# [16] = pH of the composition 5.8, 48 hours
# [17] = pH of the composition 6.4, 24 hours
# [18] = pH of the composition 6.4, 48 hours
# [19] = pH of the composition 6.8, 24 hours
# [20] = pH of the composition 6.8, 48 hours
# [21] = pH of the composition 7.2, 24 hours
# [22] = pH of the composition 7.2, 48 hours
compound,measurement,setting,value
"OC[C@H]1O[C@H](O[C@H]2[C@H](O)[C@@H](O)[C@H](O)O[C@@H]2CO)[C@H](O)[C@@H](O)[C@@H]1O [Maltose, maltose]","Bacteria G − b (Gram-negative bacilli), 24 hours-culture",Gram-negative bacilli [1]; 24 hours,"G − b, +++ (About 100 bacteria or more per field vision under oil-immersion lens, even uncountable)"
same,"Bacteria G − b (Gram-negative bacilli), 48 hours-culture",Gram-negative bacilli [1]; 48 hours,"G − b, + (1-9 bacteria per field of vision under oil-immersion lens)"
same,"Bacteria G − c (Gram-negative cocci), 24 hours-culture",Gram-negative cocci [2]; 24 hours,"G − c, − (No or less than one bacterium per field of version under oil-immersion lens)"
same,"Bacteria G − c (Gram-negative cocci), 48 hours-culture",Gram-negative cocci [2]; 48 hours,"G − c, − (No or less than one bacterium per field of version under oil-immersion lens)"
same,"Bacteria G + b (Gram-positive bacilli), 24 hours-culture",Gram-positive bacilli [3]; 24 hours,"G + b, + (1-9 bacteria per field of vision under oil-immersion lens)"
same,"Bacteria G + b (Gram-positive bacilli), 48 hours-culture",Gram-positive bacilli [3]; 48 hours,"G + b, +++ (About 100 bacteria or more per field vision under oil-immersion lens, even uncountable)"
same,"Bacteria G + c (Gram-positive cocci), 24 hours-culture",Gram-positive cocci; 24 hours,"G + c, − (No or less than one bacterium per field of version under oil-immersion lens)"
same,"Bacteria G + c (Gram-positive cocci), 48 hours-culture",Gram-positive cocci; 48 hours,"G + c, + (1-9 bacteria per field of vision under oil-immersion lens)"
same,"Bacteria G − b (Gram-negative bacilli), 24 hours culture",Gram-negative bacilli [4]; [7],"G − b, ++ (About 10-99 bacteria per field of vision under oil-immersion lens)"
same,"Bacteria G − b (Gram-negative bacilli), 48 hours culture",Gram-negative bacilli [4]; [8],"G − b, ++ (About 10-99 bacteria per field of vision under oil-immersion lens)"
same,"Bacteria G − b (Gram-negative bacilli), 24 hours culture",Gram-negative bacilli [4]; [9],"G − b, ++ (About 10-99 bacteria per field of vision under oil-immersion lens)"
same,"Bacteria G − b (Gram-negative bacilli), 48 hours culture",Gram-negative bacilli [4]; [10],"G − b, ++ (About 10-99 bacteria per field of vision under oil-immersion lens)"
same,"Bacteria G − b (Gram-negative bacilli), 24 hours culture",Gram-negative bacilli [4]; [11],"G − b, ++ (About 10-99 bacteria per field of vision under oil-immersion lens)"
same,"Bacteria G − b (Gram-negative bacilli), 48 hours culture",Gram-negative bacilli [4]; [12],"G − b, ++ (About 10-99 bacteria per field of vision under oil-immersion lens)"
same,"Bacteria G − b (Gram-negative bacilli), 24 hours culture",Gram-negative bacilli [4]; [13],"G − b, + (1-9 bacteria per field of vision under oil-immersion lens)"
same,"Bacteria G − b (Gram-negative bacilli), 48 hours culture",Gram-negative bacilli [4]; [14],"G − b, ++ (About 10-99 bacteria per field of vision under oil-immersion lens)"
same,"Bacteria G − b (Gram-negative bacilli), 24 hours culture",Gram-negative bacilli [4]; [15],"G − b, ++ (About 10-99 bacteria per field of vision under oil-immersion lens)"
same,"Bacteria G − b (Gram-negative bacilli), 48 hours culture",Gram-negative bacilli [4]; [16],"G − b, ++ (About 10-99 bacteria per field of vision under oil-immersion lens)"
same,"Bacteria G − b (Gram-negative bacilli), 24 hours culture",Gram-negative bacilli [4]; [17],"G − b, ++ (About 10-99 bacteria per field of vision under oil-immersion lens)"
same,"Bacteria G − b (Gram-negative bacilli), 48 hours culture",Gram-negative bacilli [4]; [18],"G − b, ++ (About 10-99 bacteria per field of vision under oil-immersion lens)"
same,"Bacteria G − b (Gram-negative bacilli), 24 hours culture",Gram-negative bacilli [4]; [19],"G − b, ++ (About 10-99 bacteria per field of vision under oil-immersion lens)"
same,"Bacteria G − b (Gram-negative bacilli), 48 hours culture",Gram-negative bacilli [4]; [20],"G − b, ++ (About 10-99 bacteria per field of vision under oil-immersion lens)"
same,"Bacteria G − b (Gram-negative bacilli), 24 hours culture",Gram-negative bacilli [4]; [21],"G − b, + (1-9 bacteria per field of vision under oil-immersion lens)"
same,"Bacteria G − b (Gram-negative bacilli), 48 hours culture",Gram-negative bacilli [4]; [22],"G − b, ++ (About 10-99 bacteria per field of vision under oil-immersion lens)"
same,"Bacteria G − c (Gram-negative cocci), 24 hours culture",Gram-negative cocci [5]; [7],"G − c, − (No or less than one bacterium per field of version under oil-immersion lens)"
same,"Bacteria G − c (Gram-negative cocci), 48 hours culture",Gram-negative cocci [5]; [8],"G − c, − (No or less than one bacterium per field of version under oil-immersion lens)"
same,"Bacteria G − c (Gram-negative cocci), 24 hours culture",Gram-negative cocci [5]; [9],"G − c, − (No or less than one bacterium per field of version under oil-immersion lens)"
same,"Bacteria G − c (Gram-negative cocci), 48 hours culture",Gram-negative cocci [5]; [10],"G − c, − (No or less than one bacterium per field of version under oil-immersion lens)"
same,"Bacteria G − c (Gram-negative cocci), 24 hours culture",Gram-negative cocci [5]; [11],"G − c, − (No or less than one bacterium per field of version under oil-immersion lens)"
same,"Bacteria G − c (Gram-negative cocci), 48 hours culture",Gram-negative cocci [5]; [12],"G − c, − (No or less than one bacterium per field of version under oil-immersion lens)"
same,"Bacteria G − c (Gram-negative cocci), 24 hours culture",Gram-negative cocci [5]; [13],"G − c, − (No or less than one bacterium per field of version under oil-immersion lens)"
same,"Bacteria G − c (Gram-negative cocci), 48 hours culture",Gram-negative cocci [5]; [14],"G − c, − (No or less than one bacterium per field of version under oil-immersion lens)"
same,"Bacteria G − c (Gram-negative cocci), 24 hours culture",Gram-negative cocci [5]; [15],"G − c, − (No or less than one bacterium per field of version under oil-immersion lens)"
same,"Bacteria G − c (Gram-negative cocci), 48 hours culture",Gram-negative cocci [5]; [16],"G − c, − (No or less than one bacterium per field of version under oil-immersion lens)"
same,"Bacteria G − c (Gram-negative cocci), 24 hours culture",Gram-negative cocci [5]; [17],"G − c, − (No or less than one bacterium per field of version under oil-immersion lens)"
same,"Bacteria G − c (Gram-negative cocci), 48 hours culture",Gram-negative cocci [5]; [18],"G − c, − (No or less than one bacterium per field of version under oil-immersion lens)"
same,"Bacteria G − c (Gram-negative cocci), 24 hours culture",Gram-negative cocci [5]; [19],"G − c, − (No or less than one bacterium per field of version under oil-immersion lens)"
same,"Bacteria G − c (Gram-negative cocci), 48 hours culture",Gram-negative cocci [5]; [20],"G − c, − (No or less than one bacterium per field of version under oil-immersion lens)"
same,"Bacteria G − c (Gram-negative cocci), 24 hours culture",Gram-negative cocci [5]; [21],"G − c, − (No or less than one bacterium per field of version under oil-immersion lens)"
same,"Bacteria G − c (Gram-negative cocci), 48 hours culture",Gram-negative cocci [5]; [22],"G − c, − (No or less than one bacterium per field of version under oil-immersion lens)"
same,"Bacteria G + b (Gram-positive bacilli), 24 hours culture",Gram-positive bacilli [6]; [7],"G + b, −˜+"
same,"Bacteria G + b (Gram-positive bacilli), 48 hours culture",Gram-positive bacilli [6]; [8],"G + b, −˜+"
same,"Bacteria G + b (Gram-positive bacilli), 24 hours culture",Gram-positive bacilli [6]; [9],"G + b, + (1-9 bacteria per field of vision under oil-immersion lens)"
